From ChEMBL document CHEMBL1629620 (Antimicrob Agents Chemother, 2009)
pEC50: −log10 of the molar value.

Tested on: Vaccinia virus
Assay: Antiviral activity against J2R gene deficient Vaccinia virus harboring VVTK::luc infected in HFF assessed as reduction of plaque formation after 3 days
Type: functional, organism-based
Conditions: Orthopoxvirus vaccinia, 72 h

Row | SMILES | pEC50
1 | O=c1[nH]c(=O)n([C@H]2C[C@H](O)[C@@H](CO)O2)cc1I [IDOXURIDINE] | 5.15
2 | Nc1ccn(C[C@@H](CO)OCP(=O)(O)O)c(=O)n1.O.O [CIDOFOVIR] | 5.03
3 | O=c1[nH]c(=O)n([C@H]2C[C@H](O)[C@@H](CO)S2)cc1I | 6.52
